Laboratory results taken from paper PMC9738107, “Targeting of the ELR+CXCL/CXCR1/2 Pathway Is a Relevant Strategy for the Treatment of Paediatric Medulloblastomas” (Cells, 2022).
Several values for one entry are separate records, joined by “and”; a condition that tells them apart may be missing. Equal entries are not always repeated.

Legend:
[1] = test system: radiation resistant Daoy cells (DR1, DR2); test: Clonogenic assay; format: cell-based, human
Method: (§1) Figure 8 C29 is efficient on radioresistant MB cell lines. (A) Cell death after 48 h of treatment with control (DMSO, CT) or C29 1, 2.5, or 5 µM on radiation-resistant cells (RR) and normal cells (N), n = 3. Statistics were performed using the one-way method ANOVA. * p < 0.05, ** p < 0.01, *** p < 0.001. For this figure, DR1 = D1, DR2 = D2, HR1 = H1, HR2 = H2, and C8D1A = C8. (B) Proliferation of DR1/DR2 (A) and HR1/HR2 (B) radio-resistant cells after 1 µM C29 treatment or control (DMSO), n = 3. (C) Clonogenic assay on DR1, DR2 (n = 3) and HR1, HR2 (n = 3) cells after treatment with control (DMSO) or C29 (1 µM or 2.5 µM). (D) Cell migration through the Boyden chamber of DR1 and DR2 cells specifically attracted by 200 ng/mL CXCL8. Cells were treated with control (DMSO) or C29 (1 and 2.5 µM). Results are expressed as percentage of control (n = 3). Scale = 1000 μm. Statistics were performed using Student t-test for 2 comparisons only or ANOVA test for multiple comparisons. * p < 0.05, ** p < 0.01, *** p < 0.001. […]
(§2) each month by using PlasmoTest Kit (#10L07‐MM, InvivoGen, Toulouse, France). Daoy and ONS‐76 belong to the Shh genetic subgroup, D341‐Med and HD‐MB03 to group 3. […]
(§3) 150 Daoy/DR1/DR2/ ONS ‐ 76 and 300 HD ‐ MB03/HR1/HR2 cells were seeded in trip‐ licate in 6‐well plates in the presence or absence of treatment (1 or 2∙5μM […] or DMSO as control). On day 9 (Daoy/ONS‐76) and day 11 (HD ‐MB03), cells were fixed in ice‐cold absolute ethanol (Sigma) for 20 min, washed with PBS and then stained with Giemsa 50% for 30 min. The number of clones was quantified using ImageJ software. We only considered clones containing more than 50 cells. […]
Violet. […]
(§4) 5000 cells were plated in 48 multi‐well plates coated with agarose 0∙8%. After two days, spheroids were mixed with 100μl of matrigel mix (200μl of matrigel (Corning Mat‐ rigel Matrix, Fontenay‐sous‐Bois, France), 100 μl collagen I (8 mg/ml, Corning), 80 μl HEPES 1M and 320μl respective medium) in 12 multi‐well plates. […]

HR2 cells = test: Clonogenic assay; format: cell-based, human; conditions: HR2, 2.5 µM
Method: as §1, §2, §3
Violet. […]
as §4

[2] = Quantification of C29 in mouse cerebellum postmortem (LC/MS); format: in vivo; conditions: for Amount of C29 in cerebellum: individual animals
Method: A 5 mM stock solution of C29 (1.743 mg/mL) in DMSO was prepared. This solution was diluted with a mixture of acetonitrile/water, 8/4, v/v to produce the solution with the highest concentration: 1250 ng/1.2 mL. Successive dilutions with acetonitrile/water, 8/4, v/v provided 5 more standards with concentrations between 50 ng/mL and 1250 ng/mL.
Samples of cerebellum were prepared by dissolving minced biological material in 1.2 mL acetonitrile/water, 8/4, v/v. After sonication for 5 min, the vials were centrifuged (15,000 rpm) and the supernatant was filtered through a […] PTFE microfilter.
All standards and samples were analysed using a LC/MS system consisting of an Agilent 1100 HPLC chain with a degasser, a binary pump, a column oven, an automatic injector, and a UV detector. The column is a Phenomenex Gemini analytical column 3 µm C18 110 A 150 mm × 3 mm × 3 µm, at 25 °C. The solvents are water with 0.1% formic acid (solvent A) and acetonitrile with 0.1% formic acid (solvent B). The gradient is as follows: 10% B to 100% B over 8 min, 100% B over 6 min, 100% B to 10% B over 1 min, and 10% B over 3 min (total time: 18 min). The UV detection is carried out over the range of 190–400 nm (in 2 nm steps). The mass spectrometer is an LCQ Advantage (ThermoScientific, Waltham, MA, USA) of the “ion trap 3D” type, equipped with an electrospray source.
Mass spectrometric detection was carried out in negative mode and in SRM (single reaction monitoring) mode according to the monitoring of the 380.9–194.2 transition. The isolation span of the ion was 2 mass units (193.2–195.2). The applied normalized collision energy was 30%. Each standard and sample were injected in duplicate. Each duplicate was separated by a blank and the concentration of the standards ranged from […]. […] Signals were acquired based on their area and integrated using the ICIS algorithm according to the following parameters: smoothing points: 15; baseline window: 75 scans; area noise factor: 5; peak noise factor: 10. Calibration is external, and the regression was linear. The origin was included in the calibration.
A critical and limiting feature of a drug targeting MB is its ability to cross the blood–brain barrier (BBB) and reach the tumour in the brain. […] However, after 5 days of treatment, 24 h after the last administration, no more C29 was found in the cerebellum of the mice.

In the case of `O=C(Nc1cccc(Cl)c1)Nc1nc2ccc([N+](=O)[O-])cc2s1` [C29, 1-(3-chlorophenyl)-3-(6-nitrobenzo[d]thiazol-2-yl) urea], the Clone formation ([1]; DR1, DR2, 1 µM) is reported as “effective”, the Clone formation ([1]; DR1, DR2, 2.5 µM) is reported as “completely prevented clone formation” and the Clone formation (HR2 cells) is reported as “significantly reduced clone formation”. The “Accumulation in cerebellum upon repeated administration” value ([2]; 5 days of treatment, 24 h after the last administration) was “does not accumulate”, the “Amount of C29 in cerebellum” value ([2]; gavage 100 mg/kg daily, chronic (5 days), 24 h after last treatment) was 0 ng C29/mg cerebellum and the “Amount of C29 in cerebellum” value ([2]; gavage 100 mg/kg, acute (3 h), 100 mg/kg) was 0 ng C29/mg cerebellum and 5.394 ng C29/mg cerebellum. For the same compound, the “Amount of C29 in cerebellum” value ([2]; gavage 200 mg/kg daily, chronic (5 days), 24 h after last treatment) was 0 ng C29/mg cerebellum, the “Amount of C29 in cerebellum” value ([2]; gavage 200 mg/kg, acute (3 h), 200 mg/kg) was 13.1 ng C29/mg cerebellum and 9.3 ng C29/mg cerebellum and 7.4 ng C29/mg cerebellum and 4.7 ng C29/mg cerebellum and 6.4 ng C29/mg cerebellum and the “Blood–brain barrier crossing” value ([2]; oral administration) was “can cross the blood–brain barrier”.
